Consider three compounds from PMC4890168 (Journal of medicinal chemistry, 2016).

Molecules are shown by their SMILES.

In assay [1] the target is ROCK1 (Homo sapiens, UniProt Q13464). Description: ROCK1 inhibition, ADP-Glo Kinase Assay.
For assay [2], the target named is T1, GRK1 (Homo sapiens, UniProt Q15835).
T1 sequence (Q15835 1-563): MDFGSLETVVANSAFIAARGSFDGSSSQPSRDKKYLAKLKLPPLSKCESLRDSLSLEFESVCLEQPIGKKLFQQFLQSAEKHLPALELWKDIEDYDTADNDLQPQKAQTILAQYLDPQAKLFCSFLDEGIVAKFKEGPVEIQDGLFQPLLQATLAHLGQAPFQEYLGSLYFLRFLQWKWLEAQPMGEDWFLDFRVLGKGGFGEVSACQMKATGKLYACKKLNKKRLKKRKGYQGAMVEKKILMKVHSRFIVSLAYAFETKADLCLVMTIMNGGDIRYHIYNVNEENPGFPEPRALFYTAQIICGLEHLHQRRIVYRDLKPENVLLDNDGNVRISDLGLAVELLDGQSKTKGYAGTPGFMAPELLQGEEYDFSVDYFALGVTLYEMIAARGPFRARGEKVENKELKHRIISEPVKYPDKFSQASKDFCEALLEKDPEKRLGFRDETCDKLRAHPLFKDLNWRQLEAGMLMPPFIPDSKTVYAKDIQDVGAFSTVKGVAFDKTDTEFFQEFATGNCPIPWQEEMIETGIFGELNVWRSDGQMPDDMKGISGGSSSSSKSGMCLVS
In words: GRK1 kinase inhibition.

Assay [3] deals with PKA (Homo sapiens, UniProt P17612). Description: PKA inhibition, ADP-Glo Kinase Assay.
For assay [4], the target named is GRK5 (Homo sapiens, UniProt P34947). Description: GRK5 kinase inhibition.
For assay [5], the system named is cardiomyocytes isolated from adult mice. In words: Contractility in mouse cardiomyocytes. The note with it: compared with lead 2; isoproterenol stimulation.

Usually IC50 stands for the concentration that inhibits the measured activity by half. Low readings indicate greater potency, high ones weaker potency.

Sequence of ROCK1 (Q13464 whole entry, species assumed): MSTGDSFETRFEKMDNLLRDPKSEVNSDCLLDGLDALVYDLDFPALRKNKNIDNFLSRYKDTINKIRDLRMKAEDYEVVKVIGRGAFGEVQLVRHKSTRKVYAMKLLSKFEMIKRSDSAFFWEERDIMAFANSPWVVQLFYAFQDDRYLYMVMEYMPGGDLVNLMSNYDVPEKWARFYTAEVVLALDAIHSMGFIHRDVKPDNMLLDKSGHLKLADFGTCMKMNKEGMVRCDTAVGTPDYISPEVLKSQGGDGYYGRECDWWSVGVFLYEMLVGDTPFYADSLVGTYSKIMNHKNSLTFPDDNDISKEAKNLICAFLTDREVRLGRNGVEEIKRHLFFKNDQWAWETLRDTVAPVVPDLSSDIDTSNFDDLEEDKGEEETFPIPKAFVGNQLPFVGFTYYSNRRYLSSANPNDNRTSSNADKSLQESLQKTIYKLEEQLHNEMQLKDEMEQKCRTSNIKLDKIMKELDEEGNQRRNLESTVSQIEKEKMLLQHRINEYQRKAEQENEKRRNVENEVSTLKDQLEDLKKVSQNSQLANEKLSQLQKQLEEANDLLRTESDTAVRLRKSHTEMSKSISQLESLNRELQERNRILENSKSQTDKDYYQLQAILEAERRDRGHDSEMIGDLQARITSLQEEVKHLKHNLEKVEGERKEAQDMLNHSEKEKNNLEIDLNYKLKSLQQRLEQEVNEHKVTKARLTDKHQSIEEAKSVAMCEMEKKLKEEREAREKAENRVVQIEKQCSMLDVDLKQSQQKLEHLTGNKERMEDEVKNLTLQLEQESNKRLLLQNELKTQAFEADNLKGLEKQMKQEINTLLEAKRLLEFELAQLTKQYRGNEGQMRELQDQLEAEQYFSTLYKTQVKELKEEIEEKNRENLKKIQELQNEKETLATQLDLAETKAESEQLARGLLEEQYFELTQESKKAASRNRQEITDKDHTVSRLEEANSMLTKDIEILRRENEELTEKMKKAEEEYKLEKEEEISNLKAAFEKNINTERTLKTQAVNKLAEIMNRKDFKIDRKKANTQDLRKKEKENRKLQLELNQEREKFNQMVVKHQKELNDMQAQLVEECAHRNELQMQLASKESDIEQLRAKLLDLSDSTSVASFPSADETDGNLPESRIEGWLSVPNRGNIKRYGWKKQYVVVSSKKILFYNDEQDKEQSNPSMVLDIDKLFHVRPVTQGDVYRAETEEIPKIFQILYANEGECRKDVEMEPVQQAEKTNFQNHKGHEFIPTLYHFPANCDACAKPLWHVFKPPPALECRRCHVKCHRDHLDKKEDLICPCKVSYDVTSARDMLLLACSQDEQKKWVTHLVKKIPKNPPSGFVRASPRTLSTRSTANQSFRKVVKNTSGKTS
Sequence of GRK5 (P34947 whole entry, species assumed): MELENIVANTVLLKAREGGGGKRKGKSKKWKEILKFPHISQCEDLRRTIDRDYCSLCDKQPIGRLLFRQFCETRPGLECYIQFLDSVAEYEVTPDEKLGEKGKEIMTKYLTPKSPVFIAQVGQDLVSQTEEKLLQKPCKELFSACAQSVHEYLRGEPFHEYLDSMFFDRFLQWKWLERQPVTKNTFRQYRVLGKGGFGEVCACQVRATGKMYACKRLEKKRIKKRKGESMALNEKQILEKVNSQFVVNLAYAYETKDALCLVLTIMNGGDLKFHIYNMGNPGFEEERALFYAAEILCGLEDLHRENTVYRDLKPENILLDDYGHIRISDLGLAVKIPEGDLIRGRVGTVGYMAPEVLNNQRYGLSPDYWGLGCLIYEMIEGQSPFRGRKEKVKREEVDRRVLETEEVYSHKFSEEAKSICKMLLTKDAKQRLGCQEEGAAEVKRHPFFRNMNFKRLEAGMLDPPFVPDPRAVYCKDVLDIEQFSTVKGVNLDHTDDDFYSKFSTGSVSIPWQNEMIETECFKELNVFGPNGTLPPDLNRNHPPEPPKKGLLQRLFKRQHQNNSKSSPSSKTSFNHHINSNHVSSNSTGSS

Regarding `CC1=C(C(=O)Nc2ccc3[nH]ncc3c2)C(c2ccc(F)c(C(=O)NCc3nccc4ccccc34)c2)NC(=O)N1` (centres unmarked) [Compound 12k, 4-(4-Fluoro-3-((isoquinolin-1-ylmethyl)carbamoyl)phenyl)-N-(1H-indazol-5-yl)-6-methyl-2-oxo-1,2,3,4-tetrahydropyrimidine-5-carboxamide], the IC50 in assay [1] is ~0.01 µM. The “increase in GRK1 potency in comparison to 12h” value in assay [2] was found to be 50 fold.
For the compound `CC1=C(C(=O)Nc2ccc3[nH]ncc3c2)C(c2ccc(F)c(C(=O)NCc3c(Cl)cccc3Cl)c2)NC(=O)N1` (centres unmarked) [Compound 12l, 4-(3-((2,6-Dichlorobenzyl)carbamoyl)-4-fluorophenyl)-N-(1H-indazol-5-yl)-6-methyl-2-oxo-1,2,3,4-tetrahydropyrimidine-5-carboxamide], the half-inhibitory concentration (IC50) in assay [3] is > 100 µM. The “selectivity for GRK2 over GRK1” value in assay [2] is listed as “over 770 fold”. Besides, the “selectivity for GRK2 over GRK5” value in assay [4] is “over 770 fold”.
Regarding `COc1cccc(OC)c1CNC(=O)c1cc(C2NC(=O)NC(C)=C2C(=O)Nc2ccc3[nH]ncc3c2)ccc1F` (centres unmarked) [Compound 12n, 4-(3-((2,6-Dimethoxybenzyl)carbamoyl)-4-fluorophenyl)-N-(1H-indazol-5-yl)-6-methyl-2-oxo-1,2,3,4-tetrahydropyrimidine-5-carboxamide], the IC50 in assay [3] was > 100 µM. In assay [1], the “decrease in potency at ROCK1 compared to 12e” value was “over 175 fold” and the “inhibition of ROCK1” value was “no detectable inhibition”. In addition, in assay [2], the “decrease in potency at GRK1 compared to 12e” value is listed as 6 fold. Further, the “decrease in potency at GRK5 compared to 12e” value in assay [4] was 43 fold. Further, the “potency at stimulating cardiomyocyte contraction” value in assay [5] is recorded as “equivalent to or slightly more potent than the lead 2”.
